Key:
[1] = test system: abdominal stretching after phenylbenzoquinone (PBQ); test: analgesic activity: blockade of abdominal stretching after phenylbenzoquinone (PBQ); type: in vivo, mice, Carworth CF-1 strain; parameters: key: (a): No significant activity noted at this dose level; details: s.c., 20 min. pre-treatment
Experimental: To test for the analgesic activity of the compounds of the present invention, a chemical nociceptive stimulus is employed, viz., blockade of abdominal stretching after phenylbenzoquinone (PBQ). […] The animals to be used are fasted for 15-16 hr. before the start of the experiment. Fifteen mice (groups of 5) weighing 11-15 g. are employed per dose level. Compounds are given by the oral or subcutaneous route. Drug pre-treatment times are 1 hr. (p.o.) and 20 min. (s.c.). Pairs of mice are injected with 2 mg./kg. of PBQ i.p. and placed in a lucite box (11×7×9.5 in.) maintained at 40° by a thermostatically controlled water bath. Starting 5 min. later the animals are observed for 5 min. and the number of abdominal stretching responses per animal is recorded. A stretch is considered to represent an intermittent contraction of the abdomen, hind limb extension, pelvic rotation, or opisthotonos (the abdomen of the mouse touches the floor of the cage and is dragged the length of the cage). The degree of analgesic protection is calculated on the basis of the suppression of writhing relative to control animals run on the same day (% MPE). This test reflects the ultimate clinical utility of the compounds as analgesic agents.

enkephalinase [2] = molecular target: T1, enkephalinase (Rattus norvegicus, UniProt P07861); test: inhibition of enkephalinase enzyme in vitro (Tyr-gly-gly formation from 3H-leucine-enkephalin); type: biochemical, Sprague-Dawley CD male rats (whole brain minus cerebellum); details: pH 7.7, 37° C., 1 hour
T1 construct: whole brain (minus cerebellum) is removed from Sprague-Dawley CD male rats; from tissue; host or cells: rat whole brain minus cerebellum (Sprague-Dawley CD male rats, Charles River); washed membranes solubilized with 1% Triton X-100
T1 sequence (P07861 1-750): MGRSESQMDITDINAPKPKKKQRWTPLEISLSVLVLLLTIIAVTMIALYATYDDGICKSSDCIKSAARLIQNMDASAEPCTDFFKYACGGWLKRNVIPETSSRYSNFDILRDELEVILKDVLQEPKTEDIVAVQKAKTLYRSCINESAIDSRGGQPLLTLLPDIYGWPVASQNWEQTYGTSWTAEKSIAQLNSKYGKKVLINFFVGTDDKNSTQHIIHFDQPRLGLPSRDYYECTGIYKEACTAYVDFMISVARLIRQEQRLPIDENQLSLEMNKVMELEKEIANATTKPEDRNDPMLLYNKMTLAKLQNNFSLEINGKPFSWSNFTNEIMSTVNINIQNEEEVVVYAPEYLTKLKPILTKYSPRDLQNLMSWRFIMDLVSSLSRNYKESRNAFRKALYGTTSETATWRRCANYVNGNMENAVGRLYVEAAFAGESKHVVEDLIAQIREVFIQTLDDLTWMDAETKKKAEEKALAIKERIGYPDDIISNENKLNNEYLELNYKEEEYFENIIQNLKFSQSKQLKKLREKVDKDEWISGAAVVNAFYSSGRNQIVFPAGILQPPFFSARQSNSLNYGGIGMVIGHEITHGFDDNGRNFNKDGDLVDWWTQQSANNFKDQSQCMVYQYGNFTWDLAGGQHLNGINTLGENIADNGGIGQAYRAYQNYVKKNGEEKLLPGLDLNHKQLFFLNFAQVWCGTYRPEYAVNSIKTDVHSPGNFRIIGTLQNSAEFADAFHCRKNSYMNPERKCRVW
Experimental: The compounds of the present invention are studied in vitro for inhibition of enkephalinase enzyme in the following manner. To prepare the enzyme, whole brain (minus cerebellum) is removed from Sprague-Dawley CD male rats (Charles River Breeding Laboratories, Inc., Wilmington, MA; 200-250 g.) following decapitation. The tissue is homogenized (Polytron, Brinkmann Instruments, Inc., Westbury, NY) in 30 volumes (w/v) of ice-cold 50 mM Tris-HCl tris(hydroxymethyl)methylamine hydrochloride, Fisher Scientific Co., Fair Lawn, NJ) pH 7.7 buffer. The homogenate in centrifuged at 50,000×g. for 15 minutes. The pellet is resuspended in 50 mM Tris-HCl pH 7.7 buffer and centrifuged at 50,000×g. for 15 minutes. The resultant pellet is resuspended and centrifuged 3 additional times as described above. The membrane pellet is dispersed in 15 volumes of 50 mM Tris-HCl pH 7.7 buffer containing 1% Triton X-100 (Rohm and Haas, Philadelphia, PA) and incubated at 37° C. for 45 minutes. After centrifugation at 100,000×g. for 60 minutes, the solubilized enzymes are frozen in 2 ml. aliquots (this preparation can be stored frozen for 3 months).
One set of control tubes contains boiled enzyme (heated at 100° C. for 10 minutes) for blank. The reaction is stopped by boiling tubes for 10 minutes, followed by centrifugation for 1 minute in the Beckman Microfuge centrifuge. A ten microl aliquot of each supernatant is spotted on a thin layer chromatography (TLC) plate (Silica Gel 60, 20×20 cm, E. Merck, Darmstadt, Germany) using 1-8 samples per plate. Ten microl of a standard mixture consisting of 0.4 mg./ml. tyrosine (tyr, Mann Research Laboratories, Inc., New York, NY), 1 mg./ml. L-tyrosylglycine (tyr-gly Sigma), 1 mg./ml. L-tyrosylglycylglycine (tyr-gly-gly, Sigma) and 1 mg./ml. leucine-enkephalin (leu-E, Calbiochem-Behring Corp., La Jolla, CA) are spotted on top of each incubation mixture spot, as well as separately on each plate, to aid in zone indentification.
Plates are dried and placed in covered glass tanks equilibrated with 100 ml. of isopropanol:ethyl acetate:5% acetic acid (2:2:1). After development of the TLC plates, the separated products were visualized by spraying with a ninhydrin:acetone (0.5%, w/v) solution and heating for 10 minutes at 100° C. in a vacuum oven. Rf values of standard markers are: tyr, 0.33; tyr-gly, 0.20: tyr-gly-gly, 0.13; leu-E, 0.47. The radioactive spots are identified by the added markers and scraped into scintillation vials to which 1 ml. ethanol is added, followed by 10 ml. Aquasol-2 (New England Nuclear). Vials are kept overnight and counted for radioactivity in a liquid scintillation counter. Tyr-gly-gly formation is based on the difference between total counts per minute for this TLC zone minus the corresponding value obtained by using boiled enzyme (blank). […]

[3] = test system: supramaximal electroconvulsive shock (ECS); test: anticonvulsant effect vs. supramaximal electroconvulsive shock (ECS) in mice; type: in vivo, Charles River males, Swiss CD strain; details: for ED50: Mus musculus, sc, mice, 1 hr. before ECS
Experimental: The anticonvulsant activity of the compounds of the present invention is determined by testing in mice, viz., Charles River males, Swiss CD strain (17-21 g.), fasted for 18 hr. before testing. Groups of mice are treated with a range of levels of the test compounds, and 1 hr. later with supramaximal electroconvulsive shock (ECS), administered for 0.2 sec. at 50 mA, 60 Hz, through transcorneal electrodes. After administration of the electrical stimulus, each mouse is observed for 10 sec. for the presence or absence of hind limb tonic extension. […] Blockade of supramaximal ECS in mice is a common laboratory test for clinical utility as an anticonvulsant, and certain known anticonvulsant drugs show activity in this test.

enkephalinase [4] = details: Roques et al., Nature 288, 286-288 (1980); cited from earlier work
hot plate jump test = details: mice; Roques et al.; cited from earlier work
tail withdrawal test = details: mice; Roques et al.; cited from earlier work

| Compound | Percent Blockade of Abdominal Stretching (% MPE) After Phenylbenzoquinone ([1]; 320 mg./kg.) | IC50 (enkephalinase [2]) [nM] | ED50 [3] [mg/kg] | also measured |
| --- | --- | --- | --- | --- |
| CSCC[C@@H](CO)NC(=O)[C@@H](CS)Cc1ccc(Cl)cc1 [I (X=4-Cl, R=H, n=2, m=0, R^1=CH3)] | 86 % MPE |  |  |  |
| COc1ccc(C[C@H](CS)C(=O)N[C@H](CO)CCSC)cc1 [I (X=4-OCH3, R=H, n=2, m=0, R^1=CH3)] | 62 % MPE |  |  |  |
| CSCC[C@@H](CO)NC(=O)[C@@H](CS)Cc1ccccc1 [I (X=H, R=H, n=2, m=0, R^1=CH3)] | 100 % MPE | 480 | 178 | Percent Blockade of Abdominal Stretching (% MPE) After Phenylbenzoquinone ([1]; 170 mg./kg.): 23 % MPE; Percent Blockade of Abdominal Stretching (% MPE) After Phenylbenzoquinone ([1]; 233 mg./kg.): 69 % MPE |
| CSCC[C@@H](CO)NC(=O)[C@H](CS)Cc1ccc(Cl)cc1 [II (X=4-Cl, R=H, n=2, m=0, R^1=CH3)] | 75 % MPE |  |  |  |
| COc1ccc(C[C@@H](CS)C(=O)N[C@H](CO)CCSC)cc1 [II (X=4-OCH3, R=H, n=2, m=0, R^1=CH3)] | 46 % MPE |  |  |  |
| CSCC[C@@H](CO)NC(=O)[C@H](CS)Cc1ccccc1 [II (X=H, R=H, n=2, m=0, R^1=CH3)] | (a) | 9600 |  |  |
| CSCC[C@H](NC(=O)[C@H](CS)Cc1ccccc1)C(=O)O [III] |  | 9.1 | 74.1 | Percent Blockade of Abdominal Stretching (% MPE) After Phenylbenzoquinone ([1]; 160 mg./kg.): 57 % MPE |
| CSCC[C@H](NC(=O)[C@@H](CS)Cc1ccccc1)C(=O)O [IV] |  | 70 | 141 | Percent Blockade of Abdominal Stretching (% MPE) After Phenylbenzoquinone ([1]; 160 mg./kg.): 48 % MPE |
| O=C(O)CNC(=O)C(CS)Cc1ccccc1 (stereo not shown) [Thiorphan, N-(2-benzyl-3-mercaptopropionyl)glycine] |  |  | > 320 | enkephalinase inhibition (in words) (enkephalinase [4]): specific enkephalinase inhibitor; analgesic (antinociceptive) activity, hot plate jump test (in words) (hot plate jump test): elicit analgesic (antinociceptive) activity; analgesic (antinociceptive) activity, tail withdrawal test (in words) (tail withdrawal test): not in the so-called tail withdrawal test; anticonvulsant activity (in words) ([3]; even at a much higher dose): inactive |

Source: US4329495A, “Enkephalinase enzyme inhibiting compounds” (Pfizer Inc., priority 1981, dated 1982)
